Assay [1] has as its target T1, human NTS2 (Homo sapiens, UniProt O95665). The experiment in a line: Radioligand binding at human NTS2 with [3H]NT. The settings on record: SEM.
Another assay has as its target human NTS1 (Homo sapiens, UniProt P30989). The settings on record: replacement of Tyr11 by alanine; ref [7]; cited from earlier work.
The target in assay [2] is T1, human NTS2. Particulars: replacement of Tyr11 by alanine; ref [7]; cited from earlier work.

T1 sequence (O95665 whole entry): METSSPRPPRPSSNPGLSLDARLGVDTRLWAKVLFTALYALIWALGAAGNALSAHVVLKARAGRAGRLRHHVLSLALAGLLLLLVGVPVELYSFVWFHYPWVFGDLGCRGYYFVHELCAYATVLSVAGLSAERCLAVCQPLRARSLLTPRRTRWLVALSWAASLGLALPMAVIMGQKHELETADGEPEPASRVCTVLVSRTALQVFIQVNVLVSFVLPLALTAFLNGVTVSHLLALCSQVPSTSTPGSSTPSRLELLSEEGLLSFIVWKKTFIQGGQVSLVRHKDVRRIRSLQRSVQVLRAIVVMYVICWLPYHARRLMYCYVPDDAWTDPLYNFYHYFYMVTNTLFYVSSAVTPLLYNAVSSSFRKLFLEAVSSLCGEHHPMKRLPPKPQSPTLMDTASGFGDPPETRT
human NTS1, sequence (P30989 whole entry): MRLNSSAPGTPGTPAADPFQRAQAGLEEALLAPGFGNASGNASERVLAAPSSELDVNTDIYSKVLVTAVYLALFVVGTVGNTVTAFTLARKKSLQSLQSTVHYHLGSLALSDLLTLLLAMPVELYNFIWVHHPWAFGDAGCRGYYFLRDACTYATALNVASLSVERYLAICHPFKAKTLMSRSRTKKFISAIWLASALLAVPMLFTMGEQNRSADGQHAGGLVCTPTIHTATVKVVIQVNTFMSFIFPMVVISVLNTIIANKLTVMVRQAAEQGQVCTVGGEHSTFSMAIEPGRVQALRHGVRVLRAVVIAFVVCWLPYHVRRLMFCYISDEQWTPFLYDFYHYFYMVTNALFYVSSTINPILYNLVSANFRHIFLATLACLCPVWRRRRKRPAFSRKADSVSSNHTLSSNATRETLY

What is called Ki is a measure of affinity in units of concentration, obtained from inhibition or displacement. Read a high Ki as a looser hold on the target. In turn, `CC[C@H](C)[C@H](NC(=O)CN(CCc1ccn2nccc2c1)C(=O)[C@@H]1CCCN1C(=O)[C@H](CCCNC(=N)N)NC(=O)[C@@H](N)CCCNC(=N)N)C(=O)N[C@@H](CC(C)C)C(=O)O` [compound 3, [^11N-{5-(2-Aminoethyl)pyrazolo[1,5-a]pyridine}-Gly]NT(8–13)] displayed a Ki on human NTS2 [1] of 520 ± 170 nM.

[^11Ala]NT(8–13): at human NTS1, the “reduction of ligand affinity at NTS1 compared to NT(8–13)” value was 5400 fold. Besides, the “decrease of affinity towards NTS2 compared to NT(8–13)” value at human NTS2 [2] is reported as 70 fold.

The record behind these values is article PMC4234217 (ChemistryOpen, 2014).
